Experimental data taken from article PMC6030563, “Type 2 NADH Dehydrogenase Is the Only Point of Entry for Electrons into the Streptococcus agalactiae Respiratory Chain and Is a Potential Drug Target” (mBio, 2018).

Legend:
[1] = test system: M. tuberculosis; parameters: method as in PMID 23439641; details: cited from earlier work
[2] = test system: Streptococcus mutans; parameters: method as in PMID 28087617; details: cited from earlier work
[3] = test system: S. agalactiae Δnox2 strain; experiment: Overnight growth and oxygen consumption of the Δnox2 strain with zafirlukast
[4] = molecular target: T1, S. agalactiae NDH-2 (Streptococcus agalactiae, UniProt Q8E3H1); experiment: Inhibition of isolated NDH-2 NADH:quinone oxidoreductase activity (FDA-approved drug library screen and IC50); details: for inhibition at 25 µM: read-out: inhibition of enzymatic activity
T1 sequence (Q8E3H1 2-402 limits assumed): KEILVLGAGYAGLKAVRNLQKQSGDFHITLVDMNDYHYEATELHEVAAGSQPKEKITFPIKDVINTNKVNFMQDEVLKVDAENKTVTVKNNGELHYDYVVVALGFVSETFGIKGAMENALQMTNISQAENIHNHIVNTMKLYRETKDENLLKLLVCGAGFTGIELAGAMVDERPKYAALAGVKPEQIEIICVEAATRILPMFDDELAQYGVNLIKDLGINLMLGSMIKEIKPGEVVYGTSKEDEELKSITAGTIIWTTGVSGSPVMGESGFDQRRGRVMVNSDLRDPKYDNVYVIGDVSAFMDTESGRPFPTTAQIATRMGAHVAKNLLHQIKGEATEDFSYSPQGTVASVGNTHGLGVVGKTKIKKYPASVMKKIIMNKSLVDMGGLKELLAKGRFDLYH

[5] = test system: S. agalactiae WT cells; details: Streptococcus agalactiae, read-out: inhibition of respiration (oxygen consumption)
[6] = test system: S. agalactiae cells; experiment: Inhibition of cell growth overnight under respiration permissive conditions (GI50); type: cell-based, Streptococcus agalactiae; details: for GI50: Streptococcus agalactiae, overnight growth, respiration permissive conditions, read-out: GI50 (concentration that causes 50% inhibition of cell growth); for effect on cell growth: whole cells growing under respiration permissive conditions
[7] = test system: Porphyromonas gingivalis; parameters: method as in PMID 28087617; details: cited from earlier work
[8] = molecular target: T1, S. agalactiae NDH-2; experiment: NDH-2 enzyme activity and kinetic parameters with NADH and soluble quinone analogues; type: biochemical
Description: The rate of NADH oxidation was determined using a UV-Vis spectrophotometer (Agilent Technologies model 8453) by monitoring absorbance at 340 nm (NADH oxidation) upon addition of 100 µM NADH in the presence of 2 nM enzyme and a 100 µM concentration of a quinone soluble analogue. Assays were performed at 37°C in buffer B (50 mM sodium phosphate buffer [pH 7], 150 mM NaCl) plus 125 µg ml^−1 of soy asolectin (Sigma) and 20 µM FAD. For determination of kinetic constants, 2 to 200 µM NADH and 2 to 200 µM of DMN were added to the reaction mixture containing 2 nM enzyme. Enzyme rates are expressed as a turnover number (kcat) based on moles of NADH oxidized per second per mole of enzyme.

[9] = test system: S. aureus NdhC; parameters: method as in PMID 24709059; details: cited from earlier work

Compound	IC50 [4] [µM]	inhibition at 25 µM [4] [%]	GI50 [6] [µM]	further results
COc1cc(C(=O)NS(=O)(=O)c2ccccc2C)ccc1Cc1cn(C)c2ccc(NC(=O)OC3CCCC3)cc12 [Zafirlukast]	0.83 ± 0.07	≥ 80	6.07 ± 0.1	activity against M. tuberculosis [1]: bactericidal activity; activity against Streptococcus mutans [2]: antibacterial and antibiofilm activity; growth under respiration permissive compared to nonpermissive conditions ([3]; Δnox2 strain grown overnight with 7.5 µM zafirlukast (~GI50)): does not exhibit enhanced growth; oxygen utilization compared to cells grown in the absence of zafirlukast ([3]; Δnox2 strain grown overnight with 7.5 µM zafirlukast, respiration permissive): substantially lower; inhibition at 7.5 µM [5]: 90%; activity against Porphyromonas gingivalis [7]: antibacterial and antibiofilm activity
NC(=O)C1=CN([C@@H]2O[C@H](COP(=O)(O)OP(=O)(O)OC[C@H]3O[C@@H](n4cnc5c(N)ncnc54)[C@H](O)[C@@H]3O)[C@@H](O)[C@H]2O)C=CC1 [NADH]	–	–	–	Km ([8]; 2 nM enzyme, 2 to 200 µM NADH and DMN, 37°C, pH 7, read-out: Km for the enzyme's substrates): 11 µM
CC1=C(C)C(=O)c2ccccc2C1=O [DMN, 2,3-dimethyl-1,4-naphthoquinone]	–	–	–	turnover number ([8]; with DMN as electron acceptor): about 800 NADH/s^−1
CCCCC(CC)CNC(=N)NC(=N)NCCCCCCNC(=N)NC(=N)NCC(CC)CCCC (stereo not shown) [Alexidine]	16.8 ± 1.26	≥ 80	2.7 ± 0.51	–
CCOc1nc2cccc(C(=O)O)c2n1Cc1ccc(-c2ccccc2-c2nnn[nH]2)cc1 [candesartan]	–	≥ 80	–	effect on cell growth [6]: no effect on cell growth
CN1CCN(CCCN2c3ccccc3Sc3ccc(C(F)(F)F)cc32)CC1 [trifluoperazine]	–	–	–	inhibition of S. agalactiae NDH-2 [4]: not inhibited; inhibitory effect on S. aureus NdhC [9]: strong inhibitory effect
CC[C@H](C)C[C@H](C)CCCCCCCCC(=O)N[C@H]1C[C@@H](O)[C@@H](NCCN)NC(=O)[C@@H]2[C@@H](O)CCN2C(=O)[C@H]([C@H](O)CCN)NC(=O)[C@H]([C@H](O)[C@@H](O)c2ccc(O)cc2)NC(=O)[C@@H]2C[C@@H](O)CN2C(=O)[C@H]([C@@H](C)O)NC1=O [Caspofungin]	15.2 ± 2.33	≥ 80	41 ± 2.62	–
CSc1nc2cc(Cl)c(Oc3cccc(Cl)c3Cl)cc2[nH]1 [Triclabendazole]	0.14 ± 0.02	≥ 80	15.3 ± 1.92	–
O=c1c(O[C@@H]2O[C@H](CO)[C@@H](O)[C@H](O)[C@H]2O)c(-c2ccc(O)c(O)c2)oc2cc(O)cc(O)c12 [isoquercetin]	–	≥ 80	–	effect on cell growth [6]: no effect on cell growth
COC1=C(OC)C(=O)C(CC=C(C)C)=C(C)C1=O [Q1, ubiquinone-1]	–	–	–	enzyme activity corresponding to 100% (NADH oxidation) ([8]; 100 µM quinone analogue, 100 µM NADH, Fig. 2C): 4,190 NADH s^−1
Oc1c(Cl)cc(Cl)c(Cl)c1Cc1c(O)c(Cl)cc(Cl)c1Cl [hexachlorophene]	–	–	–	inhibition of enzymatic activity ([4]; 25 µM each compound, pure enzyme, NADH and menadione): at least 80%
CCCCOc1ccc(OCCCN2CCOCC2)cc1 [pramoxine]	–	≥ 80	–	effect on cell growth [6]: no effect on cell growth
Cc1cc(C(C#N)c2ccc(Cl)cc2)c(Cl)cc1NC(=O)c1cc(I)cc(I)c1O (stereo not shown) [Closantel]	5.34 ± 0.65	≥ 80	0.25 ± 0.04	–
CSc1ccc2c(c1)N(CCC1CCCCN1C)c1ccccc1S2 (stereo not shown) [thioridazine]	–	–	–	inhibitory effect on S. aureus NdhC [9]: strong inhibitory effect
